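Exposure lasted 48 hours, with cells grown in 96-well plates and compounds tested at five concentrations. The concentration for 50% growth inhibition is given as GI50.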 Activity calls are given as the source filed them. No stated cut-off is given here; in the data, active = GI50 up to about 1.1 µM and inactive = higher.
How the values were obtained:
Assay in all cases: DTP human tumour cell line panel, 48 h
[1] = system: UO-31
[2] = system: HOP-92
[3] = system: ACHN
[4] = system: EKVX
[5] = system: HCC 2998
[6] = system: NCI-H460
[7] = system: HOP-62
[8] = system: OVCAR-8
[9] = system: OVCAR-5
[10] = system: RXF 393
[11] = system: SK-MEL-2
[12] = system: HCT-15
[13] = system: NCI-H522
[14] = system: SK-MEL-5
[15] = system: OVCAR-4
[16] = system: LOX IMVI
[17] = system: 786-0
[18] = system: OVCAR-3
[19] = system: COLO 205
[20] = system: TK-10

Structure (SMILES) | GI50 [1] | GI50 [2] | GI50 [3] | GI50 [4] | GI50 [5] | GI50 [6] | GI50 [7] | GI50 [8] | GI50 [9] | GI50 [10] | GI50 [11] | GI50 [12] [µM] | GI50 [13] | GI50 [14] | GI50 [15] | GI50 [16] | GI50 [17] | GI50 [18] | GI50 [19] | GI50 [20]
O=C1[C@@H]2[C@@H](CN3CN(c4ccccc4)N=C(c4ccccc4)[C@@]23c2ccccc2)C(=O)N1c1ccccc1 | 1.73 µM (inactive) | 1.79 µM (inactive) | 1.83 µM (inactive) | 4.89 µM (inactive) | 25.2 µM (inactive) | 19.8 µM (inactive) | 14 µM (inactive) | 5.85 µM (inactive) | 4.7 µM (inactive) | 2.95 µM (inactive) | 14.9 µM (inactive) | 2.3 | 0.547 µM (active) | 16.9 µM (inactive) | 2.61 µM (inactive) | 1.68 µM (inactive) | 1.88 µM (inactive) | 7.73 µM (inactive) | 1.91 µM (inactive) | 1.48 µM (inactive)
CC(SC1=CC(=O)c2c(O)ccc(O)c2C1=O)C(=O)O (stereo not given) | > 47.3 µM (inactive) | > 58.5 µM (inactive) | 26.7 µM (inactive) | > 100 µM (inactive) | > 73.8 µM (inactive) | > 100 µM (inactive) | > 100 µM (inactive) | 23.5 µM (inactive) | > 100 µM (inactive) | > 48.4 µM (inactive) | > 100 µM (inactive) | > 37 | 1.51 µM (inactive) | > 61.5 µM (inactive) | 17 µM (inactive) | > 41.2 µM (inactive) | 23.9 µM (inactive) | 21.4 µM (inactive) | 22.5 µM (inactive) | > 51.5 µM (inactive)
COc1cccc(/C=C/C(=O)c2sc(C(N)=S)nc2C)c1O | 56.4 µM (inactive) | > 100 µM (inactive) | > 100 µM (inactive) | > 100 µM (inactive) | 75.5 µM (inactive) | > 76.4 µM (inactive) | > 100 µM (inactive) | > 96.2 µM (inactive) | > 100 µM (inactive) | > 74.3 µM (inactive) | > 100 µM (inactive) | 26.1 | > 48.3 µM (inactive) | > 100 µM (inactive) | > 72.8 µM (inactive) | 22.4 µM (inactive) | 34.8 µM (inactive) | > 60.3 µM (inactive) | > 68.2 µM (inactive) | > 100 µM (inactive)
CC(CO)(CO)N1C(=O)C2C3C=CC(C3)C2C1=O (stereo not given) | > 100 µM (inactive) | > 100 µM (inactive) | > 100 µM (inactive) | > 100 µM (inactive) | > 100 µM (inactive) | > 100 µM (inactive) | > 100 µM (inactive) | > 100 µM (inactive) | > 100 µM (inactive) | 52.1 µM (inactive) | > 100 µM (inactive) | > 100 | > 100 µM (inactive) | > 100 µM (inactive) | > 100 µM (inactive) | > 100 µM (inactive) | > 100 µM (inactive) | > 100 µM (inactive) | > 100 µM (inactive) | > 100 µM (inactive)
CCn1c(SCC(=O)N/N=C/c2ccccc2)nc2ccccc2c1=O | 29.9 µM (inactive) | 26.9 µM (inactive) | 36 µM (inactive) | 26.3 µM (inactive) | 5.22 µM (inactive) | 2.13 µM (inactive) | 12.8 µM (inactive) | 16.3 µM (inactive) | > 52 µM (inactive) | 7.19 µM (inactive) | 11.7 µM (inactive) | 3.87 | 3.7 µM (inactive) | 7.94 µM (inactive) | 14.1 µM (inactive) | 6.68 µM (inactive) | 7.66 µM (inactive) | 10 µM (inactive) | 8.34 µM (inactive) | > 55.1 µM (inactive)
COc1ccc2cc(CN3CCC(C4CCN(Cc5ccc6cc(OC)ccc6c5)CC4)CC3)ccc2c1 | 3.14 µM (inactive) | 2.37 µM (inactive) | 7.35 µM (inactive) | 11.9 µM (inactive) | 0.18 µM (active) | 2.17 µM (inactive) | 6.43 µM (inactive) | 5.15 µM (inactive) | 21.8 µM (inactive) | 5.16 µM (inactive) | 4.44 µM (inactive) | 1.45 | 2.3 µM (inactive) | 1.66 µM (inactive) | 4.42 µM (inactive) | 2.14 µM (inactive) | 2.06 µM (inactive) | 3.1 µM (inactive) | 1.78 µM (inactive) | 3.25 µM (inactive)
Oc1ccc(-c2nc3ccc4ccccc4c3c3c2CCCC3)c(O)c1 | 29.9 µM (inactive) | 24.7 µM (inactive) | 28.8 µM (inactive) | 28.8 µM (inactive) | 36.5 µM (inactive) | 19.6 µM (inactive) | 57.7 µM (inactive) | 13.8 µM (inactive) | 20 µM (inactive) | 34.9 µM (inactive) | 9.08 µM (inactive) | 26.5 | 12.1 µM (inactive) | 9.68 µM (inactive) | 66.8 µM (inactive) | 32.7 µM (inactive) | 11.7 µM (inactive) | 24.4 µM (inactive) | 11.1 µM (inactive) | 37.1 µM (inactive)
O=C(O)CNC(=O)c1cccc2c(=O)c3ccccc3[nH]c12 | 70.1 µM (inactive) | > 100 µM (inactive) | > 100 µM (inactive) | > 100 µM (inactive) | > 100 µM (inactive) | > 100 µM (inactive) | > 100 µM (inactive) | > 100 µM (inactive) | > 100 µM (inactive) | > 100 µM (inactive) | > 100 µM (inactive) | > 100 | > 100 µM (inactive) | 99.8 µM (inactive) | > 100 µM (inactive) | > 100 µM (inactive) | > 100 µM (inactive) | > 100 µM (inactive) | > 100 µM (inactive) | > 100 µM (inactive)
CCC(Sc1cc(Cl)c(C)cc1S(=O)(=O)Nc1nc(N)nc(N(C)C)n1)C(=O)O (stereo not given) | > 10 µM (inactive) | > 10 µM (inactive) | > 10 µM (inactive) | > 10 µM (inactive) | > 10 µM (inactive) | > 10 µM (inactive) | > 10 µM (inactive) | > 10 µM (inactive) | > 10 µM (inactive) | > 10 µM (inactive) | > 10 µM (inactive) | > 10 | > 10 µM (inactive) | > 10 µM (inactive) | > 10 µM (inactive) | > 10 µM (inactive) | > 10 µM (inactive) | > 10 µM (inactive) | > 10 µM (inactive) | > 10 µM (inactive)
COc1ccc(/C=c2/s/c(=C(\C#N)c3nc4ccccc4[nH]3)n(-c3ccccc3)c2=O)cc1 | > 52.6 µM (inactive) | 12.6 µM (inactive) | > 82.4 µM (inactive) | > 69.3 µM (inactive) | > 82.8 µM (inactive) | 9.75 µM (inactive) | 17.1 µM (inactive) | 14.6 µM (inactive) | > 100 µM (inactive) | 36 µM (inactive) | > 77.6 µM (inactive) | > 53.6 | > 60.3 µM (inactive) | > 92.7 µM (inactive) | 6.92 µM (inactive) | 36.9 µM (inactive) | 12.8 µM (inactive) | 26.8 µM (inactive) | 36.2 µM (inactive) | > 52.7 µM (inactive)
COc1ccc2c(c1)c(=O)c1ccccc1n2/C=C/C(=O)O | > 100 µM (inactive) | > 100 µM (inactive) | > 100 µM (inactive) | > 100 µM (inactive) | > 100 µM (inactive) | > 100 µM (inactive) | > 100 µM (inactive) | > 100 µM (inactive) | > 100 µM (inactive) | > 79.4 µM (inactive) | > 100 µM (inactive) | > 100 | > 100 µM (inactive) | > 100 µM (inactive) | > 100 µM (inactive) | > 46.9 µM (inactive) | > 100 µM (inactive) | > 100 µM (inactive) | > 56.8 µM (inactive) | > 100 µM (inactive)
CC(=O)OC(C)C(=O)C1c2cccc(O)c2C(=O)c2c(O)cc(C)cc21 (stereo not given) | 0.261 µM (active) | 0.288 µM (active) | 0.579 µM (active) | 1.36 µM (inactive) | 0.429 µM (active) | 0.375 µM (active) | 0.343 µM (active) | 1.06 µM (active) | 1.31 µM (inactive) | 0.259 µM (active) | 0.429 µM (active) | 0.479 | 1.52 µM (inactive) | 0.357 µM (active) | 0.452 µM (active) | 0.483 µM (active) | 1.09 µM (active) | 0.427 µM (active) | 1.65 µM (inactive) | 1.42 µM (inactive)
